Patent US20250145589A1, “PYRIDINE DERIVATIVE AND USE THEREOF” (SICHUAN HUIYU PHARMACEUTICAL CO., LTD., priority 2021, published 2025)
Like-named read-outs stand apart in the source and are kept apart here.

What was measured:
PI3Kδ = PI3Kδ (Homo sapiens (Human), UniProt O00329); assay: Inhibition of PI3Kδ efficacy assay (ADP-Glo kinase assay); assay type: biochemical; settings: read-out: PI3Kδ inhibitory activity (IC50)
Summary of the method: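 Luminescent ADP-Glo readout of PI3Kδ: after a 60 min RT reaction with PI/ATP substrate, ATP depletion (40 min) and ADP detection (40 min) steps followed. Compounds tested as eight five-fold serial dilutions; inhibition rates fitted to log(inhibitor) vs. response, variable slope, for IC50.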

PI3Kα = PI3Kα (Homo sapiens (Human), UniProt P42336); assay: Inhibition of PI3Kα efficacy assay (ADP-Glo kinase assay); assay type: biochemical; settings: read-out: PI3Kα inhibitory activity (IC50)
PI3Kα, sequence (P42336 whole entry): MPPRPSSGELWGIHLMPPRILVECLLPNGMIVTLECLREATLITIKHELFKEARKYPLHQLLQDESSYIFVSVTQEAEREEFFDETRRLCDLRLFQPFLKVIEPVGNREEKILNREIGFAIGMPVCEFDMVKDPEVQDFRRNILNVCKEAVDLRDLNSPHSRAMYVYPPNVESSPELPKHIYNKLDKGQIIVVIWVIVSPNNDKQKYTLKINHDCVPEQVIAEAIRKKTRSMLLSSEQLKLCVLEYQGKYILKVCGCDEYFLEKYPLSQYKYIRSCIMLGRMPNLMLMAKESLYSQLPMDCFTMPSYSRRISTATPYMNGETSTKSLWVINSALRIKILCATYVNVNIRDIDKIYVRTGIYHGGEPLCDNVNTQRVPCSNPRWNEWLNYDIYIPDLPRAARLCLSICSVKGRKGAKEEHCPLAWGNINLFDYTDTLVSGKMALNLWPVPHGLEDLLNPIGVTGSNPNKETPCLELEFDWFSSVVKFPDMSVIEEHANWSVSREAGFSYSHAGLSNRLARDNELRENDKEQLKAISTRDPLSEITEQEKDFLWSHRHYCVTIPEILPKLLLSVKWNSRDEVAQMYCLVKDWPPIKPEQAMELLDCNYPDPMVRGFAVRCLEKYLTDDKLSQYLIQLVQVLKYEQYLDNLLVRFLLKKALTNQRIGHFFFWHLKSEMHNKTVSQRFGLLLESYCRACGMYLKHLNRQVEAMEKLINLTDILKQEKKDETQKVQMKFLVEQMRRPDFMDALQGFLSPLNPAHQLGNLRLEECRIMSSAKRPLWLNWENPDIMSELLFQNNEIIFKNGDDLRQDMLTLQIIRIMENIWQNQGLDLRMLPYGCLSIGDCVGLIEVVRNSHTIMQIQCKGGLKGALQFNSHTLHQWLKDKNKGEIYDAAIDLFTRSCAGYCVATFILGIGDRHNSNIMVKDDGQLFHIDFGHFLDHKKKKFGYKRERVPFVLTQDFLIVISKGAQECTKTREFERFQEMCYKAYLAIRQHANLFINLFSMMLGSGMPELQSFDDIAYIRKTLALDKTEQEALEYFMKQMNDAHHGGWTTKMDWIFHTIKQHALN
PI3Kα, sequence (P27986 whole entry partner): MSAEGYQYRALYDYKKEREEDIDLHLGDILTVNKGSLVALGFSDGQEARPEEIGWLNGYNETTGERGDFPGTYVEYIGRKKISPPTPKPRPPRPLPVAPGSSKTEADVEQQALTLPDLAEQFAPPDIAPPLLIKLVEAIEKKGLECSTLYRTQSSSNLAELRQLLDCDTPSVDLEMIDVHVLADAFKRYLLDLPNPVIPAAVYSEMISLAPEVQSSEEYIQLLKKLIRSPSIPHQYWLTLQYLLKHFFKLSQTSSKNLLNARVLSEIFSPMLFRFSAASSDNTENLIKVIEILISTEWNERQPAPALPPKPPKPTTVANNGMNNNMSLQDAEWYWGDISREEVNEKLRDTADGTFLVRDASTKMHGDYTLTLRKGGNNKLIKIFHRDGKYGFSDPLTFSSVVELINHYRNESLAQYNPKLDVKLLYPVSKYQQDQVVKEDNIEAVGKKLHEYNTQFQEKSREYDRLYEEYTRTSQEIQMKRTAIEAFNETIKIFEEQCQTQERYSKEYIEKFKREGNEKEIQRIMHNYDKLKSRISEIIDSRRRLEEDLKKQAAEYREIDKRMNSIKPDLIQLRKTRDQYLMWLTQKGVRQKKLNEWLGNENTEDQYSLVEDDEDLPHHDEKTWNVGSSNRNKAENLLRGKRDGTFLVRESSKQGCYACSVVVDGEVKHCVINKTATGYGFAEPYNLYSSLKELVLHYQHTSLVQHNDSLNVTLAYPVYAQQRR
Summary of the method: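 ADP-Glo luminescent detection of ADP from PI3Kα acting on PI substrate with ATP, 60 min at RT; compounds in 8-point five-fold serial dilution from 2 mM DMSO stock. IC50 from four-parameter variable-slope fit.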

KRAS^G12C-SOS1 = KRAS^G12C-SOS1 (Homo sapiens (Human), UniProt P01116, G12C); assay: HTRF KRAS G12C/SOS1 binding assay; settings: Table 5
KRAS^G12C-SOS1, sequence (P01116-2 other isoform, or with tags, fused parts or gaps G12C): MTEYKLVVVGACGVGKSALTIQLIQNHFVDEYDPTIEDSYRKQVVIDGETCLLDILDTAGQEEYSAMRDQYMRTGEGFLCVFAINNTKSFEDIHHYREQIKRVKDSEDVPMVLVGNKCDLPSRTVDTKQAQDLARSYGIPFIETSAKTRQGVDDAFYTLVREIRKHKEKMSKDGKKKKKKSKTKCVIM
Summary of the method: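 Compound was serially diluted five-fold over eight points, with a 2 mM DMSO stock. After anti-tag-Tb3+ and anti-tag-XL665 were added, plates were incubated 3 h at 4 °C and read by HTRF (ex 337 nm, em 620/665 nm ratio). IC50 values come from four-parameter variable-slope fits.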

[1] = system: NCI-H358 cells (KRAS G12C mutant); assay: NCI-H358 cell proliferation inhibition (CellTiter-Glo); assay type: cell-based; settings: Homo sapiens, NCI-H358, 72 h; H358 cells (G12C mutation), 3 days, Table 6; read-out: NCI-H358 (IC50)

PI3Kδ, sequence (O00329 whole entry): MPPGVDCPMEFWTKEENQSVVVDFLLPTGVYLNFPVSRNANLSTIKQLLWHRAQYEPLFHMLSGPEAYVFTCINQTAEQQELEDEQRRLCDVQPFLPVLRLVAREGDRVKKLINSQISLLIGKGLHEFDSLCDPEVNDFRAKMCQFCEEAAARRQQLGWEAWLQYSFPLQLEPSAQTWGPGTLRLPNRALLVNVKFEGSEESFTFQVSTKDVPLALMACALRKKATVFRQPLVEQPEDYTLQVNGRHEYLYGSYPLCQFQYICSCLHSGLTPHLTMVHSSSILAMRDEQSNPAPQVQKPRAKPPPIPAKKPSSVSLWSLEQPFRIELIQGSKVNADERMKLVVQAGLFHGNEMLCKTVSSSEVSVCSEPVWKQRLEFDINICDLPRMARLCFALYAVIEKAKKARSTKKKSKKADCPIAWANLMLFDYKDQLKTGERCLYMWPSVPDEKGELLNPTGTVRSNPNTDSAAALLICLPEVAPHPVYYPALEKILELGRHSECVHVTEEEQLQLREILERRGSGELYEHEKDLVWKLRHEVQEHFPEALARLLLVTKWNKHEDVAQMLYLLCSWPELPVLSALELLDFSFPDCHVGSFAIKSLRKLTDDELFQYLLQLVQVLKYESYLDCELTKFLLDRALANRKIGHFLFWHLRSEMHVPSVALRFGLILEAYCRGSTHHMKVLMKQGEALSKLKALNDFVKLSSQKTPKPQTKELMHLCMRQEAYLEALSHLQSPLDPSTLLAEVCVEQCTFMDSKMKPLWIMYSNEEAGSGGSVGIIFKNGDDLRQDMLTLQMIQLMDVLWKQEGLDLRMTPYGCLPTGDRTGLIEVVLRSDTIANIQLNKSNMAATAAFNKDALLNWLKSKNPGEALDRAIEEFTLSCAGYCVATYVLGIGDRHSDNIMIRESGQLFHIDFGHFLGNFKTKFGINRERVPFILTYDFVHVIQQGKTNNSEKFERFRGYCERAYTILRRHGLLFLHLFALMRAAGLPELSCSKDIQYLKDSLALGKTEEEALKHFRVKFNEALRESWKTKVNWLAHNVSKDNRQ
PI3Kδ, sequence (P27986 whole entry partner): as the sequence (P27986 whole entry partner) above

| SMILES | IC50 (PI3Kδ; Table 4) | IC50 (PI3Kα; Table 4) | IC50 (KRAS^G12C-SOS1) | IC50 [1] | IC50 (PI3Kδ; Table 2) | IC50 (PI3Kα; Table 2) | IC50 (PI3Kδ; Table 1) | IC50 (PI3Kα; Table 1) |
| --- | --- | --- | --- | --- | --- | --- | --- | --- |
| C=C(C(C)=O)C(=O)N1CCN(c2ncnc3ccc(-c4cnc(OC)c(NS(=O)(=O)c5ccc(F)cc5F)c4)cc23)CC1 [Example 168, 2,4-difluoro-N-(2-methoxy-5-(4-(4-(2-methylene-3-oxobutanoyl)piperazin-1-yl)quinazolin-6-yl)pyridin-3-yl)benzenesulfonamide] | 0.0172 µM | 0.0062 µM | 0.546 µM | 0.0312 µM |  |  |  |  |
| COc1ncc(-c2ccc3ncnc(C4=CCN(C(=O)/C=C/C(C)=O)CC4)c3c2)cc1NS(=O)(=O)c1c(F)cccc1F [Example 201, (E)-2,6-difluoro-N-(2-methoxy-5-(4-(1-(4-oxopent-2-enoyl)-1,2,3,6-tetrahydropyridin-4-yl)quinazolin-6-yl)pyridin-3-yl)benzenesulfonamide] | 0.0118 µM | 0.0038 µM | 0.14 µM | 0.0072 µM |  |  |  |  |
| COc1ncc(-c2ccc3ncnc(N4CCN(C5CN(C(=O)/C=C/C(C)=O)C5)CC4)c3c2)cc1NS(=O)(=O)c1ccc(F)cc1F [Example 56, (E)-2,4-difluoro-N-(2-methoxy-5-(4-(4-(1-(4-oxopent-2-enoyl)azetidin-3-yl)piperazin-1-yl)quinazolin-6-yl)pyridin-3-yl)benzenesulfon-amide] |  |  | 0.471 µM | 0.0697 µM | 0.0372 µM | 0.0044 µM |  |  |
| COc1ncc(-c2ccc3ncnc(C4CCN(C(=O)/C=C/C(C)=O)CC4)c3n2)cc1NS(=O)(=O)c1c(F)cc(F)cc1F [Example 231, (E)-2,4,6-trifluoro-N-(2-methoxy-5-(4-(1-(4-oxopent-2-enoyl)piperidin-4-yl)pyrido[3,2-d]pyrimidin-6-yl)pyridin-3-yl)benzenesulfonamide] | 0.0161 µM | 0.0036 µM | 0.463 µM | 0.0037 µM |  |  |  |  |
| COC(=O)c1ncc(-c2ccc3ncnc(N4CCN(C(=O)/C=C/C(C)=O)CC4)c3c2)cc1NS(=O)(=O)c1ccc(F)cc1F [Example 181, methyl (E)-3-((2,4-difluoro-phenyl)sulfonamido)-5-(4-(4-(4-oxopent-2-enoyl)piperazin-1-yl)quinazolin-6-yl)picolinate] | 0.0204 µM | 0.00073 µM |  | 0.0497 µM |  |  |  |  |
| COc1ncc(-c2ccc3ncnc(N4CC5CCC4CN5C(=O)/C=C/C(C)=O)c3c2)cc1NS(=O)(=O)c1ccc(F)cc1F (stereo not shown) [Example 158, (E)-2,4-difluoro-N-(2-methoxy-5-(4-(5-(4-oxopent-2-enoyl)-2,5-diazabicyclo[2.2.2]octan-2-yl)quinazolin-6-yl)pyridin-3-yl)benzenesulfonamide] | 0.0346 µM | 0.003 µM | 0.191 µM | 0.0552 µM |  |  |  |  |
| COc1ncc(-c2ccc3ncnc(N4CCN(C(=O)/C=C/C(C)=O)C[C@@H]4C)c3c2)cc1NS(=O)(=O)c1sc(C)nc1C [Example 173, (S,E)-N-(2-methoxy-5-(4-(2-methyl-4-(4-oxopent-2-enoyl)piperazin-1-yl)quinazolin-6-yl)pyridin-3-yl)-2,4-dimethyl-thiazole-5-sulfonamide] | 0.0165 µM | 0.0022 µM | 0.199 µM | 0.0068 µM |  |  |  |  |
| COc1ncc(-c2ccc3ncnc(N4CCN(C(=O)/C=C/C(C)=O)CC4)c3c2)cc1NS(=O)(=O)c1sc(C)nc1C [Example 160, (E)-N-(2-methoxy-5-(4-(4-(4-oxopent-2-enoyl)piperazin-1-yl)quinazolin-6-yl)pyridin-3-yl)-2,4-dimethylthiazole-5-sulfonamide] | 0.0152 µM | 0.002 µM | 0.169 µM | 0.013 µM |  |  |  |  |
| COc1ncc(-c2ccc3ncnc(N4CCN(C(=O)/C=C/n5ccnn5)CC4)c3c2)cc1NS(=O)(=O)c1ccc(F)cc1F [Example 10, (E)-N-(5-(4-(4-(3-(1H-1,2,3-triazol-1-yl)acryloyl)piperazin-1-yl)quinazolin-6-yl)-2-methoxypyridin-3-yl)-2,4-difluorobenzenesulfonamide] |  |  |  | 0.0246 µM |  |  | 0.0167 µM | 0.00044 µM |
| COc1ncc(-c2ccc3ncnc(N4CCN(C(=O)/C=C/C(C)=O)CC4)c3c2)cc1NS(=O)(=O)c1ccc(F)cc1F [Example 6, (E)-2,4-difluoro-N-(2-methoxy-5-(4-(4-(4-oxopent-2-enoyl)piperazin-1-yl)quinazoline-6-yl)pyridin-3-yl)benzenesulfonamide] |  |  | 0.323 µM | 0.018 µM |  |  | 0.0109 µM |  |
| COc1ncc(-c2ccc3ncnc(N4CCC5(CC=CC5=O)CC4)c3c2)cc1NS(=O)(=O)c1ccc(F)cc1F [Example 70, 2,4-difluoro-N-(2-methoxy-5-(4-(1-oxo-8-azaspiro[4,5]dec-2-en-8-yl)quinazolin-6-yl)pyridin-3-yl)benzenesulfonamide] |  |  |  | 0.0584 µM | 0.035 µM | 0.0088 µM |  |  |
| CC(=O)/C=C/C(=O)N1CCN(c2ncnc3ccc(-c4cnc(OCC(F)(F)F)c(NS(=O)(=O)c5ccc(F)cc5F)c4)cc23)CC1 [Example 159, (E)-2,4-difluoro-N-(5-(4-(4-(4-oxopent-2-enoyl)piperazin-1-yl)quinazolin-6-yl)-2-(2,2,2-trifluoroethoxy)pyridin-3-yl)benzenesulfonamide] | 0.0917 µM | 0.0118 µM |  | 0.172 µM |  |  |  |  |
| COc1ncc(-c2ccc3ncnc(N4CCN(C(=O)/C=C/C(C)=O)CC4)c3c2)cc1NS(=O)(=O)c1ccc(C#N)cc1F [Example 123, (E)-4-cyano-2-fluoro-N-(2-methoxy-5-(4-(4-(4-oxopent-2-enoyl)piperazin-1-yl)quinazolin-6-yl)pyridin-3-yl)benzenesulfonamide] |  |  |  | 0.0212 µM | 0.0314 µM | 0.0091 µM |  |  |
| C=CC(=O)N1CCN(c2ncnc3ccc(-c4cnc(OC)c(NS(=O)(=O)c5ccc(F)cc5F)c4)cc23)[C@@H](C)C1 [Example 7, (S)—N-(5-(4-(4-acryloyl-2-methylpiperazin-1-yl)quinazolin-6-yl)-2-methoxypyridin-3-yl)-2,4-difluorobenzenesulfonamide] |  |  |  | 0.044 µM |  |  | 0.012 µM | 0.0014 µM |
| [2H]C([2H])([2H])Oc1ncc(-c2ccc3ncnc(N4CCN(C(=O)/C=C/C(C)=O)CC4)c3c2)cc1NS(=O)(=O)c1ccc(F)cc1F [Example 191, (E)-2,4-difluoro-N-(2-(methoxy-d3)-5-(4-(4-(4-oxopent-2-enoyl)piperazin-1-yl)quinazolin-6-yl)pyridin-3-yl)benzene-sulfonamide] | 0.0167 µM |  | 0.143 µM | 0.0202 µM |  |  |  |  |
| COc1ncc(-c2ccc3ncnc(N4CCN(C(=O)/C=C/C(C)=O)CC4)c3c2)cc1NS(C)(=O)=O [Example 170, (E)-N-(2-methoxy-5-(4-(4-(4-oxopent-2-enoyl)piperazin-1-yl)quinazolin-6-yl)pyridin-3-yl)methane-sulfonamide] | 0.017 µM | 0.007 µM |  | 0.0616 µM |  |  |  |  |
| COc1ncc(-c2ccc3ncnc(N4CCN(C(=O)/C=C/C(C)=O)CC4)c3c2)cc1NS(=O)(=O)c1cccc(F)c1F [Example 90, (E)-2,3-difluoro-N-(2-methoxy-5-(4-(4-(4-oxopent-2-enoyl)piperazin-1-yl)quinazolin-6-yl)pyridin-3-yl)benzenesulfonamide] |  |  |  | 0.0545 µM | 0.0237 µM | 0.004 µM |  |  |
